From ChEMBL document CHEMBL1129455, “Chemistry of the pyrrolo[1,2-alpha]benzimidazole antitumor agents: influence of the 7-substituent on the ability to alkylate DNA and inhibit topoisomerase II” (1996)

System: Cancer cell lines
Assay: concentration to inhibit 50%cancer cell growth and the value is the mean value which was obtained from 60 cancer cell line assay
Assay type: functional
Conditions: not given

Point of comparison: `COC1=C(NC(C)=O)C(=O)c2nc3n(c2C1=O)CCC3OC(C)=O` (configuration not stated), GI50 18600 nM. Against it:
- O=C1C=C(N2CC2)C(=O)c2c1nc1n2CCC1 — higher, > 100000 nM
- O=C1C(N2CC2)=CC(=O)c2c1nc1n2CCC1 — 51-fold lower, 363 nM
- CC(=O)OC1CCn2c1nc1c2C(=O)C=C(N2CC2)C1=O (configuration not stated) — 69-fold lower, 269 nM
- COC1=C(N2CC2)C(=O)c2nc3n(c2C1=O)CCC3 — 26-fold lower, 708 nM
- CC(=O)NC1=C(C)C(=O)c2c(nc3n2CCC3)C1=O — 13-fold lower, 1450 nM
- CC1=C(N2CC2)C(=O)c2nc3n(c2C1=O)CCC3 — 1000-fold lower, 18.2 nM
- CC(=O)NC1=C(C)C(=O)c2c(nc3n2CCC3OC(C)=O)C1=O (configuration not stated) — 12-fold lower, 1580 nM
- CC(=O)OC1CCn2c1nc1c2C(=O)C(C)=C(N2CC2)C1=O (configuration not stated) — 1600-fold lower, 12 nM

System: Cancer cell lines
Assay: The concentration to cause 50% cancer cell lethality and the value is the mean value which was obtained from 60 cancer cell line assay
Assay type: functional
Conditions: not given

Point of comparison: `CC(=O)OC1CCn2c1nc1c2C(=O)C=C(N2CC2)C1=O` (configuration not stated), LC50 5250 nM. Against it:
- O=C1C=C(N2CC2)C(=O)c2c1nc1n2CCC1 — higher, > 100000 nM
- O=C1C(N2CC2)=CC(=O)c2c1nc1n2CCC1 — within 1.5-fold, 5500 nM
- COC1=C(N2CC2)C(=O)c2nc3n(c2C1=O)CCC3 — 2.6-fold higher, 13500 nM
- COC1=C(NC(C)=O)C(=O)c2nc3n(c2C1=O)CCC3OC(C)=O (configuration not stated) — 14-fold higher, 74100 nM
- CC(=O)NC1=C(C)C(=O)c2c(nc3n2CCC3)C1=O — 2-fold higher, 10700 nM
- CC1=C(N2CC2)C(=O)c2nc3n(c2C1=O)CCC3 — 2.6-fold lower, 2040 nM
- CC(=O)NC1=C(C)C(=O)c2c(nc3n2CCC3OC(C)=O)C1=O (configuration not stated) — 3.5-fold higher, 18600 nM
- CC(=O)OC1CCn2c1nc1c2C(=O)C(C)=C(N2CC2)C1=O (configuration not stated) — 21-fold lower, 245 nM

System: Cancer cell lines
Assay: concentration to inhibit 100%cancer cell growth and the value is the mean value which was obtained from 60 cancer cell line assay
Assay type: functional
Conditions: read-out: Log TGI (converted)

Point of comparison: `CC(=O)NC1=C(C)C(=O)c2c(nc3n2CCC3)C1=O`, TGI 3720 nM. Against it:
- O=C1C=C(N2CC2)C(=O)c2c1nc1n2CCC1 — higher, > 100000 nM
- O=C1C(N2CC2)=CC(=O)c2c1nc1n2CCC1 — 2.8-fold lower, 1350 nM
- CC(=O)OC1CCn2c1nc1c2C(=O)C=C(N2CC2)C1=O (configuration not stated) — 3.5-fold lower, 1070 nM
- COC1=C(N2CC2)C(=O)c2nc3n(c2C1=O)CCC3 — within 1.5-fold, 2510 nM
- COC1=C(NC(C)=O)C(=O)c2nc3n(c2C1=O)CCC3OC(C)=O (configuration not stated) — 10-fold higher, 38900 nM
- CC1=C(N2CC2)C(=O)c2nc3n(c2C1=O)CCC3 — 35-fold lower, 105 nM
- CC(=O)NC1=C(C)C(=O)c2c(nc3n2CCC3OC(C)=O)C1=O (configuration not stated) — within 1.5-fold, 4790 nM
- CC(=O)OC1CCn2c1nc1c2C(=O)C(C)=C(N2CC2)C1=O (configuration not stated) — 120-fold lower, 31.6 nM
